The values that follow come from patent US10533000B2, “Metabotrophic glutamate receptor 5 modulators and methods of use thereof” (Sunovion Pharmaceuticals, Inc., priority 2011, dated 2020).

Each structure is given as a SMILES string.

In the experiment the target is mGluR5 (Homo sapiens, UniProt P41594). In words: mGluR5 positive allosteric modulator (PAM) functional assay. It is filed as cell-based.
Sequence of mGluR5 (P41594 21-1212): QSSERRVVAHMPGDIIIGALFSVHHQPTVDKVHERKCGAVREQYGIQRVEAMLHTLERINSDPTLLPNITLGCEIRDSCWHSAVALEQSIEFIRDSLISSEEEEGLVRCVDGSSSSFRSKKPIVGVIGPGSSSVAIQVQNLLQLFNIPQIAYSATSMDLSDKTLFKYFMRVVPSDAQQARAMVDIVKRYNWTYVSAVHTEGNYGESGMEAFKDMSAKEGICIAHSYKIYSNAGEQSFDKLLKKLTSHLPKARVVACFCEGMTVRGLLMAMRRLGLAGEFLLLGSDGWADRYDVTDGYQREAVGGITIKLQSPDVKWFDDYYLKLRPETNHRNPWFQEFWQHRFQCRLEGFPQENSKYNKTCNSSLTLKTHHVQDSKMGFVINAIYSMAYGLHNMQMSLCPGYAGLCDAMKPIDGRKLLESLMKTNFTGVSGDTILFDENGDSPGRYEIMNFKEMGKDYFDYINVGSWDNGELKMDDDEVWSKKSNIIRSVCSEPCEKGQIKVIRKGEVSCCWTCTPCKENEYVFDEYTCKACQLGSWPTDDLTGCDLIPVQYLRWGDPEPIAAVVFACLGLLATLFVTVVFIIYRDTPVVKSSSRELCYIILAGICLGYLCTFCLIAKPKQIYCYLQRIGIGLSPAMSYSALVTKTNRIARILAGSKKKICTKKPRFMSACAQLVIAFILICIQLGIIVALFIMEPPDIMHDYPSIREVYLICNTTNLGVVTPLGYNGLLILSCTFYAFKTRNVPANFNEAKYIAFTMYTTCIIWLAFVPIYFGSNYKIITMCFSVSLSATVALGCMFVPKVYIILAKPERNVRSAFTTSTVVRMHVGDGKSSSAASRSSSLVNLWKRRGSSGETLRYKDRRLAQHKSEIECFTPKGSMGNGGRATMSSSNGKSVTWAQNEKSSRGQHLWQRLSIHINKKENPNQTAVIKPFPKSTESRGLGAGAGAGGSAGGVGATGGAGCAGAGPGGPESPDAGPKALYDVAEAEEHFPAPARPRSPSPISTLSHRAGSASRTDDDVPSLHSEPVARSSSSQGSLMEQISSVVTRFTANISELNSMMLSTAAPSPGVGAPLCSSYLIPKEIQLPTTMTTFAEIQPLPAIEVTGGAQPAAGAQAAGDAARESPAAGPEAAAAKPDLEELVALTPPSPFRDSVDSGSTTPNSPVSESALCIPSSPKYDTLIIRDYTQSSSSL
For `CN(C)C(C)(C)c1nc(-c2ccc(C#Cc3cccc(F)c3)cn2)no1` [Compound 113, 2-(3-(5-((3-fluorophenyl)ethynyl)pyridin-2-yl)-1,2,4-oxadiazol-5-yl)-N,N-dimethylpropan-2-amine], the EC50 is no more than 30 nM.
In the case of `C=C1CN[C@H](c2nc(-c3ccc(C#Cc4cccc(F)c4)cn3)no2)C1` [Compound 127, (S)-3-(5-((3-fluorophenyl)ethynyl)pyridin-2-yl)-5-(4-methylenepyrrolidin-2-yl)-1,2,4-oxadiazole] it was 100 to 300 nM.
Compound `CCC(OC)c1nc(-c2ccc(C#Cc3ccccn3)cn2)no1` (centres unmarked) [Compound 138, 5-(1-methoxypropyl)-3-(5-(pyridin-2-ylethynyl)pyridin-2-yl)-1,2,4-oxadiazole] had an EC50 of 100 to 300 nM.
For `CCC(C)c1nc(-c2ccc(C#Cc3ccccn3)nc2)no1` (centres unmarked) [Compound 86, 5-(sec-butyl)-3-(6-(pyridin-2-ylethynyl)pyridin-3-yl)-1,2,4-oxadiazole], the EC50 is 30 to 100 nM.
The figure for `Fc1cccc(C#Cc2ccc(-c3noc(C4CCCN4)n3)nc2)c1` (stereo in doubt) [Compound 120, (R)-3-(5-((3-fluorophenyl)ethynyl)pyridin-2-yl)-5-(pyrrolidin-2-yl)-1,2,4-oxadiazole] is 100 to 300 nM; for `CCC(C)c1nc(-c2ccc(C#Cc3ccccn3)cn2)no1` (centres unmarked) [Compound 134, 5-(sec-butyl)-3-(5-(pyridin-2-ylethynyl)pyridin-2-yl)-1,2,4-oxadiazole] it is 30 to 100 nM; for `Fc1cccc(C#Cc2ccc(-c3noc(C4CCCC4)n3)cn2)c1` [Compound 83, 5-cyclopentyl-3-(6-((3-fluorophenyl)ethynyl)pyridin-3-yl)-1,2,4-oxadiazole] it is 100 to 300 nM.
In the case of `CN1C[C@@H](F)C[C@@H]1c1nc(-c2ccc(C#Cc3ccccn3)cn2)no1` [Compound 156, 5-((2R,4S)-4-fluoro-1-methylpyrrolidin-2-yl)-3-(5-(pyridin-2-ylethynyl)pyridin-2-yl)-1,2,4-oxadiazole], the EC50 was in the range of 300 to 1000 nM.
The compound `CC(C)NC(C)c1nc(-c2ccc(C#Cc3ccccn3)cn2)no1` (centres unmarked) [Compound 140, N-(1-(3-(5-(pyridin-2-ylethynyl)pyridin-2-yl)-1,2,4-oxadiazol-5-yl)ethyl)propan-2-amine] returned an EC50 of 100 to 300 nM.
`CO[C@H]1CN[C@@H](c2nc(-c3ccc(C#Cc4cccc(F)c4)cn3)no2)C1` [Compound 133, 3-(5-((3-fluorophenyl)ethynyl)pyridin-2-yl)-5-((2R,4R)-4-methoxypyrrolidin-2-yl)-1,2,4-oxadiazole]: the EC50 was 30 to 100 nM.
In the case of `CCC(C)c1nnc(-c2ccc(C#Cc3cccc(F)c3)cc2)o1` (centres unmarked) [Compound 2, 2-(sec-butyl)-5-(4-((3-fluorophenyl)ethynyl)phenyl)-1,3,4-oxadiazole] it was 100 to 300 nM.
Compound `CCN(C)c1nc(-c2ccc(C#Cc3cccc(F)c3)cc2)no1` [Compound 61, N-ethyl-3-(4-((3-fluorophenyl)ethynyl)phenyl)-N-methyl-1,2,4-oxadiazol-5-amine] showed an EC50 of 300 to 1000 nM.
In turn, `CCC(OC)c1nc(-c2ccc(C#Cc3ccncc3)cn2)no1` (centres unmarked) [Compound 161, 5-(1-methoxypropyl)-3-(5-(pyridin-4-ylethynyl)pyridin-2-yl)-1,2,4-oxadiazole] had an EC50 of 30 to 100 nM.
On to `CC(c1nc(-c2ccc(C#Cc3cccc(F)c3)cc2)no1)N(C)C1CC1` (centres unmarked) [Compound 54, N-(1-(3-(4-((3-fluorophenyl)ethynyl)phenyl)-1,2,4-oxadiazol-5-yl)ethyl)-N-methylcyclopropanamine], for which the EC50 lay in the range of 300 to 1000 nM.
For `CCC(C)c1nc(-c2ccc(C#Cc3cccc(F)c3)nc2)no1` (centres unmarked) [Compound 82, 5-(sec-butyl)-3-(6-((3-fluorophenyl)ethynyl)pyridin-3-yl)-1,2,4-oxadiazole], the EC50 is 30 to 100 nM.
Compound `CCC(c1nc(-c2ccc(C#Cc3ccccn3)cn2)no1)N(C)C` (centres unmarked) [Compound 148, N,N-dimethyl-1-(3-(5-(pyridin-2-ylethynyl)pyridin-2-yl)-1,2,4-oxadiazol-5-yl)propan-1-amine] registered an EC50 of 30 to 100 nM.
Compound `CN1CCC1c1nc(-c2ccc(C#Cc3cccc(F)c3)cn2)no1` (centres unmarked) [Compound 101, 3-(5-((3-fluorophenyl)ethynyl)pyridin-2-yl)-5-(1-methylazetidin-2-yl)-1,2,4-oxadiazole] displayed an EC50 of 30 to 100 nM.
As to `CC(C)(C)c1nc(-c2ccc(C#Cc3ccc(F)cc3)cc2)no1` [Compound 66, 5-(tert-butyl)-3-(4-((4-fluorophenyl)ethynyl)phenyl)-1,2,4-oxadiazole], the EC50 was in the range of 100 to 300 nM.
Turning to `CC(c1nc(-c2ccc(C#Cc3ccncc3)cc2)no1)N(C)C` (centres unmarked) [Compound 80, N,N-dimethyl-1-(3-(4-(pyridin-4-ylethynyl)phenyl)-1,2,4-oxadiazol-5-yl)ethanamine], the EC50 is no more than 30 nM.
`CC(c1nc(-c2ccc(C#Cc3ccccn3)cn2)no1)N1CCCC1(C)C` (centres unmarked) [Compound 139, 5-(1-(2,2-dimethylpyrrolidin-1-yl)ethyl)-3-(5-(pyridin-2-ylethynyl)pyridin-2-yl)-1,2,4-oxadiazole] had an EC50 of 30 to 100 nM.
In the case of `CN1C[C@H](O)C[C@@H]1c1nc(-c2ccc(C#Cc3cccc(F)c3)cn2)no1` [Compound 132, (3R,5R)-5-(3-(5-((3-fluorophenyl)ethynyl)pyridin-2-yl)-1,2,4-oxadiazol-5-yl)-1-methylpyrrolidin-3-ol] it was 100 to 300 nM.
Take `CC(c1nc(-c2ccc(C#Cc3cccc(F)c3)cc2)no1)N1CCCC1` (centres unmarked) [Compound 53, 3-(4-((3-fluorophenyl)ethynyl)phenyl)-5-(1-(pyrrolidin-1-yl)ethyl)-1,2,4-oxadiazole]: the EC50 fell in the range of 300 to 1000 nM.
In the case of `CN1CC[C@@H]2C[C@@]21c1nc(-c2ccc(C#Cc3ccccn3)cn2)no1` [Compound 172, 5-((1S,5R)-2-methyl-2-azabicyclo[3.1.0]hexan-1-yl)-3-(5-(pyridin-2-ylethynyl)pyridin-2-yl)-1,2,4-oxadiazole] it was 300 to 1000 nM.
In the case of `CCC(CC)c1nc(-c2ccc(C#Cc3ccccn3)nc2)no1` [Compound 87, 5-(pentan-3-yl)-3-(6-(pyridin-2-ylethynyl)pyridin-3-yl)-1,2,4-oxadiazole], the EC50 is no more than 30 nM.
Regarding `CCC(CC)c1nnc(-c2ccc(C#Cc3ccncc3)cc2)o1` [Compound 3, 2-(pentan-3-yl)-5-(4-(pyridin-4-ylethynyl)phenyl)-1,3,4-oxadiazole], the EC50 was in the range of 30 to 100 nM.
In the case of `CC(c1nc(-c2ccc(C#Cc3ccccn3)cn2)no1)N1CCCC1` (centres unmarked) [Compound 142, 3-(5-(pyridin-2-ylethynyl)pyridin-2-yl)-5-(1-(pyrrolidin-1-yl)ethyl)-1,2,4-oxadiazole] it was 30 to 100 nM; in that of `CN(C)C(C)(C)c1nc(-c2ccc(C#Cc3ccccn3)cn2)no1` [Compound 145, N,N-dimethyl-2-(3-(5-(pyridin-2-ylethynyl)pyridin-2-yl)-1,2,4-oxadiazol-5-yl)propan-2-amine], 30 to 100 nM; in that of `CC(c1nc(-c2ccc(C#Cc3cccc(F)c3)cn2)no1)N(C)C` (centres unmarked) [Compound 104, 1-(3-(5-((3-fluorophenyl)ethynyl)pyridin-2-yl)-1,2,4-oxadiazol-5-yl)-N,N-dimethylethanamine], 100 to 300 nM.
Take `CCC(CC)c1nc(-c2ccc(C#Cc3cccc(F)c3)cc2)no1` [Compound 34, 3-(4-((3-fluorophenyl)ethynyl)phenyl)-5-(pentan-3-yl)-1,2,4-oxadiazole]: the EC50 was 100 to 300 nM.

A word on the EC50: it is the concentration at which the effect is half-maximal. Low readings indicate an effect from little substance, high ones a need for much substance.
